In PubChem BioAssay (NCI):
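Growth conditions: 96-well plates. Treatment: test compound, 48 hours, 5 concentrations. Analysis: linear interpolation between bracketing concentrations; unreached endpoints set to highest concentration. TGI denotes the concentration required for complete inhibition of growth.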 Where a SMILES comes first, the peptide text is derived from it. [ ]: non-standard residue; d: D form. The star is where a group is joined. Bn2Val = CC(C)[C@@H](C(=O)*)N(Cc1ccccc1)Cc1ccccc1; NH(4-Cl-benzyl) = Clc1ccc(CN*)cc1; NMeV = CN[C@H](C(=O)O)C(C)C; dNMeA = CN[C@H](C)C(=O)O

How the values were obtained:
Assay in all cases: DTP human tumour cell line panel, 48 h
[1] = system: RXF 393 renal
[2] = system: UACC-62 melanoma
[3] = system: TK-10 renal
[4] = system: HS 578T breast
[5] = system: SR leukemia
[6] = system: OVCAR-3 ovarian
[7] = system: NCI-H460 lung
[8] = system: U251 CNS
[9] = system: MCF7 breast
[10] = system: MDA-N

Compound	TGI [1]	TGI [2]	TGI [3]	TGI [4]	TGI [5]	TGI [6]	TGI [7]	TGI [8]	TGI [9]	TGI [10]
CCOC(=O)Nn1c(CC#N)nnc1Cc1ccccc1	> 100 µM	> 100 µM	> 100 µM	> 100 µM	> 100 µM	> 100 µM	> 100 µM	> 100 µM	> 100 µM	> 100 µM
CC(C)[C@H](NC(=O)[C@H](C(C)C)N(Cc1ccccc1)Cc1ccccc1)C(=O)N(C)[C@H](C(=O)N1CCC[C@H]1C(=O)N(C)[C@H](C)C(=O)NCc1ccc(Cl)cc1)C(C)C (Bn2Val-V[NMeV]P[dNMeA]-{NH(4-Cl-benzyl)})	6.27 µM	13.8 µM	> 100 µM	4.04 µM	> 100 µM	9.67 µM	> 100 µM	20.1 µM	–	30.9 µM
COC[C@@H](N=Cc1ccc([N+](=O)[O-])cc1)C(C)C	> 100 µM	> 100 µM	> 100 µM	> 100 µM	> 100 µM	–	> 100 µM	> 100 µM	> 100 µM	> 100 µM
CC(C)C(C/C=C1\CC(CO)(COC(=O)C2CCCCC2)OC1=O)C(C)C (stereo not given)	35.4 µM	> 100 µM	41.8 µM	31.8 µM	> 100 µM	35.7 µM	76 µM	44.1 µM	39 µM	59.3 µM
O=C(Cc1ccc(Cl)c(Cl)c1)NCC1(N2CCCCC2)CCCCC1	53 µM	42 µM	> 100 µM	> 100 µM	> 100 µM	> 100 µM	> 100 µM	> 100 µM	> 100 µM	> 100 µM
CC(Oc1ccccc1Cl)C(=O)NN1C(=O)CSC1c1ccccc1 (stereo not given)	> 100 µM	> 100 µM	> 100 µM	> 100 µM	> 100 µM	> 100 µM	> 100 µM	> 100 µM	> 100 µM	> 100 µM
C=CCP(=O)(CC=C)C(Cl)Cl	–	–	> 100 µM	> 100 µM	> 100 µM	> 100 µM	> 100 µM	> 100 µM	> 100 µM	> 100 µM
Cn1c(-c2ccc(/C=N/NC(=S)N/N=C/c3ccc(-c4c[n+]5ccsc5n4C)cc3)cc2)c[n+]2ccsc12	–	–	> 100 µM	> 100 µM	> 100 µM	–	> 100 µM	> 100 µM	> 100 µM	> 100 µM
CCN(CC)C(=S)SS(=O)(=O)c1cccc(N)c1	> 100 µM	> 100 µM	> 100 µM	> 100 µM	> 100 µM	> 100 µM	> 100 µM	> 100 µM	> 100 µM	> 100 µM
O=C(Nn1c(-c2ccccc2)nc2ccccc2c1=O)c1ccccc1O	> 100 µM	77.2 µM	> 100 µM	> 100 µM	> 100 µM	> 100 µM	> 100 µM	> 100 µM	> 100 µM	> 100 µM
O=C1c2c(O)cccc2-c2nn(CCNCCO)c3ccc(NCCNCCO)c1c23	1.37 µM	0.344 µM	7.08 µM	0.535 µM	3 µM	5.86 µM	0.934 µM	0.195 µM	3.15 µM	1.94 µM
CC(C)(C)n1c(=O)[nH]c(=O)n1C(C)(C)C	> 100 µM	> 100 µM	> 100 µM	> 100 µM	> 100 µM	> 100 µM	> 100 µM	> 100 µM	> 100 µM	> 100 µM
O=C1OC[C@H]2[C@@H]1[C@H]1O[C@@H]2C2=C(CCC2)C1=O	> 100 µM	> 100 µM	> 100 µM	> 100 µM	> 100 µM	> 100 µM	> 100 µM	> 100 µM	> 100 µM	> 100 µM
O=C(c1cccs1)N1CCN(C(=O)c2cccs2)C1=S	10.5 µM	16.6 µM	19 µM	> 100 µM	> 100 µM	10.7 µM	19.1 µM	18.2 µM	14.8 µM	14.8 µM
CN(C)CCCNc1ccc2nnn3c4ccc(O)cc4c(=O)c1c23	1.16 µM	23.7 µM	19.4 µM	13.3 µM	3.61 µM	23 µM	14.1 µM	18.7 µM	24.8 µM	19.9 µM
O=C(N/N=C/C=C/c1ccccc1)c1ccccc1Nc1ccccc1C(=O)N/N=C/C=C/c1ccccc1	> 100 µM	> 100 µM	> 100 µM	> 100 µM	> 100 µM	> 100 µM	> 100 µM	> 100 µM	> 100 µM	> 100 µM
CC(C)/C(Cl)=N\OC(NC(=O)P(=O)(c1ccccc1)c1ccccc1)(C(F)(F)F)C(F)(F)F	34 µM	49 µM	25.2 µM	> 100 µM	59 µM	18.4 µM	53.7 µM	12 µM	34 µM	63.8 µM
O=c1[nH]n(Cc2ccccc2)c2ccc([N+](=O)[O-])cc12	> 100 µM	> 100 µM	> 100 µM	> 100 µM	> 100 µM	> 100 µM	> 100 µM	> 100 µM	> 100 µM	99.6 µM
CC(C)=CCNc1nc(Cl)nc2nc[nH]c12	62 µM	> 100 µM	> 100 µM	> 100 µM	> 100 µM	> 100 µM	68.8 µM	–	> 100 µM	> 100 µM
C/C(=N\NC(=S)N(C)C)c1cccnn1	–	4.89 µM	> 100 µM	> 100 µM	> 20.3 µM	> 100 µM	–	> 100 µM	> 45 µM	> 74.2 µM
